From patent US12275745B2, “Therapeutic compounds and methods of use” (Genentech, Inc., priority 2021, dated 2025)

Columns and labels:
TEAD4 = TEAD4 (Homo sapiens, UniProt Q15561); test: TR-FRET (Lipid HTRF) TEAD lipid pocket probe displacement assay, TEAD4; type: binding; conditions: His-tagged TEAD4, biotinylated lipid pocket probe, 4 hours
TEAD1 = TEAD1 (Homo sapiens, UniProt P28347); test: TR-FRET (Lipid HTRF) TEAD lipid pocket probe displacement assay, TEAD1; type: binding; conditions: His-tagged TEAD1, biotinylated lipid pocket probe, 4 hours
Chain of TEAD1 (P28347 whole entry, species assumed): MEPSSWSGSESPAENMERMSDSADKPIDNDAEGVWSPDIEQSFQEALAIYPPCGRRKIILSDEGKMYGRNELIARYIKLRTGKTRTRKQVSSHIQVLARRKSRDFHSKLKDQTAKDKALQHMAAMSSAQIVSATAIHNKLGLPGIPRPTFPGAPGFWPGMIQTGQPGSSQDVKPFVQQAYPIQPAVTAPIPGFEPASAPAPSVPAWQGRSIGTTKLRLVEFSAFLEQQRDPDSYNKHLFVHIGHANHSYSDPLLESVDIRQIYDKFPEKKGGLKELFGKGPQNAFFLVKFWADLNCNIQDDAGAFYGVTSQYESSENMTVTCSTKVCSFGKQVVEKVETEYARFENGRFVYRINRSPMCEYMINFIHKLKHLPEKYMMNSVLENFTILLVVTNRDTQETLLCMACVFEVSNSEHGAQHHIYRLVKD

TEAD3 = TEAD3 (Homo sapiens, UniProt Q99594); test: TR-FRET (Lipid HTRF) TEAD lipid pocket probe displacement assay, TEAD3; type: binding; conditions: His-tagged TEAD3, biotinylated lipid pocket probe, 4 hours
Chain of TEAD3 (Q99594 whole entry, species assumed): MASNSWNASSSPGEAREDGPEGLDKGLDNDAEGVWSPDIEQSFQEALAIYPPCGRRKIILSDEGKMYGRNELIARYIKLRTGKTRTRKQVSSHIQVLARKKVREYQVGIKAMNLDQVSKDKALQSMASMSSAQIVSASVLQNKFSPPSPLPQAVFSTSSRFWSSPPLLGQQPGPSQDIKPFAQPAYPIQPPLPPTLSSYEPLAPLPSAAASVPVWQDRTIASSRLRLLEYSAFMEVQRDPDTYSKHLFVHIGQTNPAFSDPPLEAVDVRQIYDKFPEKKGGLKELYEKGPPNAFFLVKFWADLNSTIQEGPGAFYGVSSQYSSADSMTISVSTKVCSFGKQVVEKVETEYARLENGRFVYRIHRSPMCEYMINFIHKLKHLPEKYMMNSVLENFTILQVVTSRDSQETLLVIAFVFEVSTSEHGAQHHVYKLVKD
Protocol: His-tagged TEAD proteins are pre-incubated with TEAD project compounds for 30 minutes or 4 hours at room temperature. Biotinylated lipid pocket probes are then added to the TEAD/Compound mixture and incubated for 60 minutes at room temperature. The lipid pocket probe competes with the test compound for the TEAD lipid pocket until equilibrium is reached. After 60 minutes, Europium labelled anti-His (Perkin Elmer #AD0110) and XL665 labelled streptavidin (CIS Bio 610SAXAC) are added to the TEAD/test compound/lipid pocket mixture and incubated for 30 minutes or 4 hours. TR-FRET values are then measured using an EnVision multi-label plate reader (Perkin Elmer Cat #2104-001 0A.) If the lipid pocket probe binds to TEAD as expected, a TR-FRET signal results from the proximity of anti-His Eu and XL665. If a TEAD lipid pocket binder such as binds and displaces the lipid pocket probe, the disruption of the TEAD:probe interaction results in a decrease in TR-FRET signal. The potency of compounds as TEAD lipid pocket binders is determined by IC50 value generated using a non-linear 4 parameter curve fit.

TEAD2 = TEAD2 (Homo sapiens, UniProt Q15562); test: biochemical;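 also: TR-FRET competition assay with His-tagged TEAD protein and a biotinylated lipid pocket probe, where probe displacement by compound lowers the signal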
Chain of TEAD2 (Q15562 whole entry, species assumed): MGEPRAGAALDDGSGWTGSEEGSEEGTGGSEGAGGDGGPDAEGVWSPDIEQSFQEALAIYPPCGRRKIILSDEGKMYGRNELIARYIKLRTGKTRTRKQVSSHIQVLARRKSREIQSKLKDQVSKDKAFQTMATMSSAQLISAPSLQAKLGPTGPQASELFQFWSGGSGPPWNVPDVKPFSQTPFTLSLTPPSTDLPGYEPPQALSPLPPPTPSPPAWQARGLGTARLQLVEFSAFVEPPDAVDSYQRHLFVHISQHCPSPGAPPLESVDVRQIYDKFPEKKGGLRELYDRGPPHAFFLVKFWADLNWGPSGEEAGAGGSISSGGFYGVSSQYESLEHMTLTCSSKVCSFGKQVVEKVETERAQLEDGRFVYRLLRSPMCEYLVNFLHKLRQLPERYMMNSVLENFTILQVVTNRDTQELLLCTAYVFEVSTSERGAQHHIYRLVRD

Chain of TEAD4 (Q15561 whole entry, species assumed): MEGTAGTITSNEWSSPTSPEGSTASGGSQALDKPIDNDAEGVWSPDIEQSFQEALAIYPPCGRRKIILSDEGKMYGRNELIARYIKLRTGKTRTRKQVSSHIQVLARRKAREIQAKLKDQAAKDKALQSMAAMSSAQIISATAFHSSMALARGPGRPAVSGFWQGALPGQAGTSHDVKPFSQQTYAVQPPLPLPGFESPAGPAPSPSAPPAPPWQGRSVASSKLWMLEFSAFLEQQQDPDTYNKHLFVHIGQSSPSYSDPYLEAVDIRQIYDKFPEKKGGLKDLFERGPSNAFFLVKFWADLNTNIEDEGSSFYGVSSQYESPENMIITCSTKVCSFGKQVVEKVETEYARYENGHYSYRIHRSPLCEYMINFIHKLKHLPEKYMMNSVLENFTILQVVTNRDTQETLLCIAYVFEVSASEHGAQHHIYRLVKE

IC50 (TEAD4) [nM] | IC50 (TEAD1) [nM] | IC50 (TEAD3) [nM] | IC50 (TEAD2) [nM] | SMILES
53 |  |  |  | C=CC(=O)NCc1cc(-c2ccc(OC(F)(F)F)cc2)c2ncn(C)c2c1[C@H](O)CO (single isomer, unassigned) [Compound 30]
55 |  |  |  | C=CC(=O)NCc1cc(-c2ccc(OC(F)(F)F)cc2)c2ncn(C)c2c1[C@@H](O)CO (single isomer, unassigned) [Compound 31]
79 | 140 | 260 | 7.8 | C=CC(=O)NCc1cc(-c2ccc(OC(F)(F)F)cc2)c2ncn(C)c2c1[C@H](C)O (single isomer, unassigned) [Compound 33]
260 |  |  |  | C=CC(=O)NCc1nc(-c2ccc(OC(F)(F)F)cc2)c2ncn(C)c2c1[C@H](O)CO (single isomer, unassigned) [Compound 70]
120 |  |  |  | C=CC(=O)NCc1nc(-c2ccc(OC(F)(F)F)cc2)c2ncn(C)c2c1[C@@H](O)CO (single isomer, unassigned) [Compound 71]
 | 93 | 580 | 66 | C=CC(=O)N1CC[C@@H](c2nc(-c3ccc(OC(F)(F)F)cc3)c3ncn(C)c3n2)C1 (single isomer, unassigned) [Compound 122]
 | 17 | 80 | 7.8 | C=CC(=O)N1CC[C@H](c2nc(-c3ccc(OC(F)(F)F)cc3)c3ncn(C)c3n2)C1 (single isomer, unassigned) [Compound 123]
5 |  | 70 | 300 | O=C(CCl)NCc1nc(-c2ccc(OC(F)(F)F)cc2)c2ncsc2n1 [Compound 15, 2-chloro-N-[[7-[4-(trifluoromethoxy)phenyl]thiazolo[5,4-d]pyrimidin-5-yl]methyl]acetamide]
11.9 |  | 72.7 | 190 | C=CC(=O)NCc1nc(-c2ccc(OC(F)(F)F)cc2)c2ncsc2n1 [Compound 21, N-[[7-[4-(trifluoromethoxy)phenyl]thiazolo[5,4-d]pyrimidin-5-yl]methyl]prop-2-enamide]
6.7 |  | 40.5 | 15 | C=CC(=O)NCc1cc(-c2ccc(OC(F)(F)F)cc2)c2ncn(C)c2c1C#N [Compound 27, N-[[4-cyano-3-methyl-7-[4-(trifluoromethoxy)phenyl]benzimidazol-5-yl]methyl]prop-2-enamide]
2 |  |  | 3.1 | C=CC(=O)N1CC(c2nc(-c3ccc(OC(F)(F)F)cc3)c3ncn(C)c3n2)C1 [Compound 62, 1-[3-[9-methyl-6-[4-(trifluoromethoxy)phenyl]purin-2-yl]azetidin-1-yl]prop-2-en-1-one]
 | 16 | 340 | 17 | C=CC(=O)NCc1cc(-c2ccc(OC(F)(F)F)cc2)c2ncn(C)c2c1C#C[C@H](O)CO [Compound 74, (S)—N-((7-(3,4-dihydroxybut-1-yn-1-yl)-1-methyl-4-(4-(trifluoromethoxy)phenyl)-1H-benzo[d]imidazol-6-yl)methyl)acrylamide]
 | 9 | 160 | 13 | C=CC(=O)NCc1cc(-c2ccc(OC(F)(F)F)cc2)c2ncn(C)c2c1C#C[C@@H](O)CO [Compound 75, (R)-N-((7-(3,4-dihydroxybut-1-yn-1-yl)-1-methyl-4-(4-(trifluoromethoxy)phenyl)-1H-benzo[d]imidazol-6-yl)methyl)acrylamide]
260 |  | 1300 | 230 | C=CC(=O)NCc1cc(-c2ccc(OC(F)(F)F)cc2)c2ncn(C)c2c1C(N)=O [Compound 76, 3-methyl-5-[(prop-2-enoylamino)methyl]-7-[4-(trifluoromethoxy)phenyl]benzimidazole-4-carboxamide]
15.1 |  | 216 | 275 | [2H]C([2H])=C([2H])C(=O)NCc1nc(-c2ccc(OC(F)(F)F)cc2)c2ncsc2n1 [Compound 101, N-((7-(4-(Trifluoromethoxy)phenyl)thiazolo[5,4-d]pyrimidin-5-yl)methyl)acrylamide-2,3,3-d3]
2.25 |  | 9 | 4.85 | Cn1cnc2c(-c3ccc(OC(F)(F)F)cc3)nc(C3CN(C(=O)C4=CCC4)C3)nc21 [Compound 115, Cyclobut-1-en-1-yl(3-(9-methyl-6-(4-(trifluoromethoxy)phenyl)-9H-purin-2-yl)azetidin-1-yl)methanone]
 | 5.3 |  | 8.7 | C/C=C/S(=O)(=O)N1CC(c2nc(-c3ccc(OC(F)(F)F)cc3)c3ncn(C)c3n2)C1 [Compound 116, (E)-9-Methyl-2-(1-(prop-1-en-1-ylsulfonyl)azetidin-3-yl)-6-(4-(trifluoromethoxy)phenyl)-9H-purine]
6.7 | 9.5 |  | 72 | C=C(F)C(=O)N1CC(c2nc(-c3ccc(OC(F)(F)F)cc3)c3ncn(C)c3n2)C1 [Compound 118, 2-Fluoro-1-(3-(9-methyl-6-(4-(trifluoromethoxy)phenyl)-9H-purin-2-yl)azetidin-1-yl)prop-2-en-1-one]
160 |  |  | 1300 | Cn1cnc2c(-c3ccc(OC(F)(F)F)cc3)nc(C3CN(C(=O)C45CC4C5)C3)nc21 (stereo not shown) [Compound 119, Bicyclo[1.1.0]butan-1-yl(3-(9-methyl-6-(4-(trifluoromethoxy)phenyl)-9H-purin-2-yl)azetidin-1-yl)methanone]
220 |  |  | 840 | C/C=C(\C)C(=O)N1CC(c2nc(-c3ccc(OC(F)(F)F)cc3)c3ncn(C)c3n2)C1 [Compound 120, (E)-2-Methyl-1-(3-(9-methyl-6-(4-(trifluoromethoxy)phenyl)-9H-purin-2-yl)azetidin-1-yl)but-2-en-1-one]

Second part, the compound before the results:

SMILES | IC50 (TEAD4) [nM] | IC50 (TEAD1) [nM] | IC50 (TEAD3) [nM] | IC50 (TEAD2) [nM]
C=CC(=O)N[C@H](C)c1cc(-c2ccc(OC(F)(F)F)cc2)c2c(c1CO)CCO2 (single isomer, unassigned) [Compound 17] | 5700 |  |  | 
C=CC(=O)N[C@@H](C)c1cc(-c2ccc(OC(F)(F)F)cc2)c2c(c1CO)CCO2 (single isomer, unassigned) [Compound 18] | 800 |  |  | 
C=CC(=O)NCc1cc(-c2ccc(OC(F)(F)F)cc2)c2cccnc2c1[C@H](O)CO (single isomer, unassigned) [Compound 45] | 380 | 48 | 1200 | 18
C=CC(=O)NCc1cc(-c2ccc(OC(F)(F)F)cc2)c2cccnc2c1[C@@H](O)CO (single isomer, unassigned) [Compound 46] | 125 | 22 | 79 | 6.15
C=CC(=O)NCc1cc(-c2ccc(OC(F)(F)F)cc2)c2ncccc2c1[C@H](O)CO (single isomer, unassigned) [Compound 47] | 135 | 22 | 175 | 11.5
C=CC(=O)NCc1cc(-c2ccc(OC(F)(F)F)cc2)c2ncccc2c1[C@@H](O)CO (single isomer, unassigned) [Compound 48] | 145 | 22 | 1040 | 14.5
C=CC(=O)N(C)Cc1cc(-c2ccc(OC(F)(F)F)cc2)c2ncccc2c1[C@H](O)CO (single isomer, unassigned) [Compound 51] | 20 | 19 | 110 | 12
C=CC(=O)N(C)Cc1cc(-c2ccc(OC(F)(F)F)cc2)c2ncccc2c1[C@@H](O)CO (single isomer, unassigned) [Compound 52] | 43 | 25 | 79 | 46
C=CC(=O)NCc1cc(-c2ccc(OC(F)(F)F)cc2)c2nccnc2c1[C@H](O)CO (single isomer, unassigned) [Compound 79] |  |  | 1900 | 40
C=CC(=O)NCc1cc(-c2ccc(OC(F)(F)F)cc2)c2ncoc2c1[C@H]1CNC(=O)O1 (single isomer, unassigned) [Compound 111] | 290 | 160 |  | 70
C=CC(=O)NCc1cc(-c2ccc(OC(F)(F)F)cc2)c2ncoc2c1[C@@H]1CNC(=O)O1 (single isomer, unassigned) [Compound 112] | 520 | 2400 |  | 360
C=CC(=O)NCc1cc(-c2ccc(OC(F)(F)F)cc2)c2c(c1CO)CCO2 [Compound 12, N-((4-(Hydroxymethyl)-7-(4-(trifluoromethoxy)phenyl)-2,3-dihydrobenzofuran-5-yl)methyl)acrylamide] | 15.2 |  |  | 18.3
C=CS(=O)(=O)NCc1cc(-c2ccc(OC(F)(F)F)cc2)c2c(c1CO)CCO2 [Compound 19, N-((4-(Hydroxymethyl)-7-(4-(trifluoromethoxy)phenyl)-2,3-dihydrobenzofuran-5-yl)methyl)ethenesulfonamide] |  | 4 | 8 | 
[2H]C([2H])=C([2H])C(=O)NCc1cc(-c2ccc(OC(F)(F)F)cc2)c2c(c1CO)CCO2 [Compound 20, 2,3,3-Trideuterio-N-((4-(hydroxymethyl)-7-(4-(trifluoromethoxy)phenyl)-2,3-dihydrobenzofuran-5-yl)methyl]prop-2-enamide] | 17.5 |  |  | 23.5
O=C(CCl)NCc1cc(-c2ccc(OC(F)(F)F)cc2)c2c(c1CO)CCO2 [Compound 25, 2-Chloro-N-((4-(hydroxymethyl)-7-(4-(trifluoromethoxy)phenyl)-2,3-dihydrobenzofuran-5-yl)methyl)acetamide] | 3.7 | 4.4 |  | 3.9
C=CC(=O)NCc1cc(-c2ccc(OC(F)(F)F)cc2)c2nccnc2c1[C@@H](O)CO [Compound 28, N-[[5-[(1R)-1,2-dihydroxyethyl]-8-[4-(trifluoromethoxy)phenyl]quinoxalin-6-yl]methyl]prop-2-enamide] |  |  | 390 | 15.3
